In series [1] the test system is COX-1. The settings on record: macrophage cells; cited from earlier work.
The subject of series [2] is iNOS. The settings on record: macrophage cells after exposure to LPS; cited from earlier work.
Series [3] concerns stressed skin flaps. The settings on record: animals with pineal glands removed, versus no melatonin; cited from earlier work.
Series [4] deals with COX-2. Conditions: macrophage cells after exposure to LPS; cited from earlier work.
The nature of series [5]: Sleepiness side effect in the case subjects. Format: in vivo, human. Conditions: topical application. The text has this:
This is probably due to either the local metabolism of melatonin or to the metabolism of melatonin in the liver, which is its primary site of metabolism (Slominski).

For series [6], the system named is paw swelling and edema. The settings on record: systemic melatonin after injection of a noxious stimulant; cited from earlier work.

This is an account of results in US20110020436A1 (priority 2006, published 2011).

The structures appear in SMILES notation.

Consider `COc1ccc2[nH]cc(CCNC(C)=O)c2c1` [melatonin, N-acetyl-5-methoxytryptamine], for which the COX-1 function result in series [1] is on record as “does not inhibit”. Also, the “activation of iNOS” value in series [2] is “inhibits the activation”. For the same compound, in series [3], the “levels of MDA and nitric oxide” value was “decreased levels”; the levels of glutathione result is reported as “increased levels”. In addition, the “activation of COX-2” value in series [4] was “inhibits the activation”. The sleepiness result in series [5] was “no sleepiness”. Also, the “swelling and edema of the paw” value in series [6] is “reduction of swelling and edema”.
